Where “and” joins values, the source holds several entries; their conditions need not be identical. Equal entries are not always repeated.
Assays:
Type in all cases: cell-based, human
MCF-7 cells = experiment: MTT cell viability assay, MCF-7; settings: for IC50: MTT, 48 h, mean ± SD, n = 3; for MCF-7 Selectivity Index (SI): SI = IC50 (HEK 293)/IC50 (MCF-7)
Experimental: (§1) Cell viability assay was performed on the human lung cancer (A549) (ATCC CCL-185), human breast cancer (MCF-7) (ATCC-HTB-22), cervical cancer (HeLa) (ATCC-CCL-2), and human embryonic kidney 293 (HEK293) (ATCC-CRL-1573) cell lines, which were purchased from Deutsche Sammlung von Mikroorganismen und Zellkulturen (DSMZ, Braunschweig, Germany). The cells were maintained in Dulbecco’s modified Eagle’s medium (DMEM), supplemented with 10% fetal bovine serum (FBS), 2 mM L-glutamine, 100 U/mL penicillin, and 100 mg/L streptomycin (Biochrom AG, Berlin, Germany) at 37 °C in a humidified atmosphere of 5% CO2.
(§2) The cytotoxic effect was determined by the MTT (3-(4,5-dimethyl-2-thiazolyl)-2,5-diphenyl-2H-tetrazolium bromide) cell viability assay. Cells were seeded at an initial concentration of 1 × 10^5 cells/mL in 96-well microplates. Cells were then treated with different concentrations (0.5, 5, 10, 25, 50, 100 and 200 µM) of the novel synthesized compounds for 48 h. After the incubation period, the formed formazan crystals were dissolved in dimethyl sulfoxide (DMSO), and the optical density (OD) of the compounds was measured at 570 nm using a spectrophotometer (BMG Labtech, Ortenberg, Germany). Cytotoxicity was expressed as an increase in the mean percentage of cytotoxicity relative to the unexposed control ± standard deviation (SD). […] Control values were set at 0% cytotoxicity. IC50 was calculated by fitting the data to a sigmoidal curve using a four-parameter logistic model and was presented as an average of three independent measurements. […] Doxorubicin was used as a positive control. Each sample was tested in triplicate.
(§3) To evaluate the selectivity of the tested compound(s) toward cancer cells over normal cells, the Selectivity Index (SI) was calculated using the following formula:SI = IC50 (normal cells)/IC50 (cancer cells)
(§4) An SI value greater than 2 was considered to indicate selective cytotoxicity, while values below 2 were interpreted as non-selective. Higher SI values reflect greater therapeutic potential due to reduced toxicity toward normal cells.

HeLa cells [1] = experiment: MTT cell viability assay, HeLa; settings: for IC50: MTT, 48 h, mean ± SD, n = 3; for HeLa Selectivity Index (SI): SI = IC50 (HEK 293)/IC50 (HeLa)
Experimental: as §1, §2, §3, §4

HEK 293 cells = experiment: MTT cell viability assay, non-cancerous HEK 293; settings: mean ± SD, n = 3
Experimental: as §1
The cytotoxic effect was determined by the MTT (3-(4,5-dimethyl-2-thiazolyl)-2,5-diphenyl-2H-tetrazolium bromide) cell viability assay. Cells were seeded at an initial concentration of 1 × 10^5 cells/mL in 96-well microplates. Cells were then treated with different concentrations (0.5, 5, 10, 25, 50, 100 and 200 µM) of the novel synthesized compounds for 48 h. After the incubation period, the formed formazan crystals were dissolved in dimethyl sulfoxide (DMSO), and the optical density (OD) of the compounds was measured at 570 nm using a spectrophotometer (BMG Labtech, Ortenberg, Germany). Cytotoxicity was expressed as an increase in the mean percentage of cytotoxicity relative to the unexposed control ± standard deviation (SD). […] Control values were set at 0% cytotoxicity. IC50 was calculated by fitting the data to a sigmoidal curve using a four-parameter logistic model and was presented as an average of three independent measurements. […] Each sample was tested in triplicate.

A549 cells = experiment: MTT cell viability assay, A549; settings: for IC50: MTT, 48 h, mean ± SD, n = 3; for A549 Selectivity Index (SI): SI = IC50 (HEK 293)/IC50 (A549)
Experimental: as §1, §2, §3, §4

HeLa cells [2] = experiment: LDH leakage assay, HeLa; settings: IC50 concentration of compound, 48 h, H2O2 positive control, mean ± SD, n = 3
Experimental: One hundred microliters of culture medium was transferred to a new 96-well plate. One hundred microliters of LDH reaction solution was added to each well, and absorbance was measured at 490 nm using an ELISA plate reader (BMG Labtech, Ortenberg, Germany) after 30 min.

HeLa cells [3] = experiment: Cell cycle analysis (PI staining, flow cytometry), HeLa; settings: IC50 concentration, 48 h, mean ± SEM, n = 3
Experimental: Cell cycle distribution was assessed by propidium iodide (PI) staining and flow cytometry. HeLa, MCF-7, and A549 cells were seeded in 6-well plates at a density of 1 × 10^5 cells per well and allowed to attach overnight. […] Following exposure, both adherent and floating cells were collected, washed twice with cold phosphate-buffered saline (PBS, pH 7.4), and fixed overnight in 70% cold ethanol at 4 °C. After fixation, the cells were centrifuged and resuspended in 500 µL of PI/RNase staining solution containing 50 µg/mL PI and 100 µg/mL RNase A (Sigma-Aldrich®, St. Louis, MO, USA), followed by incubation in the dark for 30 min at 37 °C. The stained samples were analyzed using a Muse™ Cell Analyzer (Merck, Millipore, Germany) equipped with a 488 nm excitation laser and a 617 nm emission filter. A minimum of 10,000 events per sample were acquired after exclusion of debris and doublets via FSC-A vs. FSC-H gating. The DNA content histograms were generated automatically, and cell populations were expressed as percentages of G0/G1, S, and G2/M phases using the Muse™ Cell Cycle Analysis Software 1.5.0.0. All assays were conducted in triplicate biological repeats (n = 3), and results were reported as mean ± SEM.

HeLa cells [4] = experiment: Intracellular GSH/GSSG ratio, HeLa; settings: IC50 concentration of compound, 48 h, H2O2 positive control, mean ± SD, n = 3
Experimental: Intracellular reduced (GSH) and oxidized (GSSG) glutathione levels were measured using the GSH/GSSG Ratio Detection Assay Kit (Cayman Chemical, Ann Arbor, MI, USA, Cat. No: 703002) according to the manufacturer’s protocol. […] After treatment, cells were washed with cold PBS and lysed with MES buffer provided in the kit.
To prevent oxidation of GSH to GSSG during processing, samples were deproteinized using the supplied metaphosphoric acid solution and neutralized accordingly. Total glutathione and GSSG levels were measured separately by adding the appropriate buffers and reagents to the wells of a 96-well plate, followed by the addition of DTNB recycling reagent and glutathione reductase. Absorbance was read at 405 nm using a microplate reader (BMG Labtech, Germany). The amount of GSH was calculated by subtracting 2 × GSSG from the total glutathione, and the GSH/GSSG ratio was used to assess intracellular redox status.

HeLa cells [5] = experiment: Total oxidative status (TOS), HeLa; settings: IC50 concentration of compound, 48 h, H2O2 250 µM positive control, mean ± SD, n = 3
Experimental: TOS were evaluated using a commercially available kit (Rel Assay Diagnostics®, Gaziantep, Turkey) according to the manufacturer’s instructions. […] The TOS assay quantifies oxidizing agents based on their ability to convert an iron (II) ion chelator complex to iron (III) ions. The results were calibrated against hydrogen peroxide (H2O2, 250 µM) as a positive control for 48 h and expressed as µmol H2O2 equivalents per liter. The analysis was performed in three independent biological replicates (n = 3).

Compound	IC50 (MCF-7 cells)	IC50 (HeLa cells [1])	IC50 (HEK 293 cells; 48 h)	IC50 (A549 cells)	IC50 (MCF-7 cells; Homo sapiens, MCF7)	MCF-7 Selectivity Index (SI) (MCF-7 cells)	IC50 (HeLa cells [1]; Homo sapiens, HeLa)	HeLa Selectivity Index (SI) (HeLa cells [1])	IC50 (HEK 293 cells; Homo sapiens, HEK293, 48 h)	IC50 (A549 cells; Homo sapiens, A549)	A549 Selectivity Index (SI) (A549 cells)	LDH (HeLa cells [2])	cells in G0/G1 phase (HeLa cells [3])	cells in G2/M phase (HeLa cells [3])	cells in S phase (HeLa cells [3])	GSH/GSSG (HeLa cells [4])	TOS (HeLa cells [5])
2,2′-(5,6-Dichloro-2-oxo-1H-benzimidazole-1,3(2H)-diyl)bis[N′-(furan-2-ylmethylidene) acetohydrazide] [Compound 4]	58 ± 3.35 µM	72 ± 4.16 µM	55 ± 3.17 µM	48 ± 2.77 µM	–	–	–	–	–	–	–	–	–	–	–	–	–
CCOC(=O)Cn1c(=O)n(CC(=O)OCC)c2cc(Cl)c(Cl)cc21 [Compound 2, Diethyl 2,2′-(5,6-Dichloro-2-oxo-1H-benzimidazole-1,3(2H)-diyl)diacetate]	–	–	–	–	63.2 ± 3.65 µM	1.13	68.8 ± 3.9 µM	1.04	71.3 ± 4.12 µM	60.8 ± 3.51 µM	1.17	–	–	–	–	–	–
NNC(=O)Cn1c(=O)n(CC(=O)NN)c2cc(Cl)c(Cl)cc21 [Compound 3, 2,2′-(5,6-Dichloro-2-oxo-1H-benzimidazole-1,3(2H)-diyl)diacetohydrazide]	–	–	–	–	69.8 ± 4.03 µM	0.97	75.4 ± 4.35 µM	0.89	67.9 ± 3.9 µM	63.5 ± 3.6 µM	1.06	–	–	–	–	–	–
O=C(Cn1c(=O)n(CC(=O)N/N=C/c2cccs2)c2cc(Cl)c(Cl)cc21)N/N=C/c1cccs1 [Compound 5]	–	–	–	–	50.2 ± 2.9 µM	1.18	26.1 ± 1.5 µM	2.27	59.4 ± 3.43 µM	48.3 ± 2.79 µM	1.22	24.8 ± 2.1 µU/mL and 24.8 ± 2.1 ^a,b µU/mL	44.5 ± 2.2%	30.0 ± 1.5%	25.5 ± 1.6%	11.8 ± 1.3	6.9 ± 0.5 µmol H2O2 eq/L and 6.9 ± 0.5 ^a,b µmol H2O2 eq/L
O=C(Cn1c(=O)n(CC(=O)c2ccccc2)c2cc(Cl)c(Cl)cc21)c1ccccc1 [Compound 8, 5,6-Dichloro-1,3-bis(2-oxo-2-phenylethyl)-1,3-dihydro-2H-benzimidazol-2-one]	–	–	–	–	21.7 ± 1.25 µM	0.8	23.9 ± 1.38 µM	0.73	17.5 ± 1.01 µM	19.1 ± 1.1 µM	0.91	–	–	–	–	–	–
O=C(Cn1c(=O)n(CC(=O)NNC(=O)c2cc3ccccc3oc2=O)c2cc(Cl)c(Cl)cc21)NNC(=O)c1cc2ccccc2oc1=O [Compound 12a, N′,N′′′ -(2,2′-(5,6-dichloro-2-oxo-1H-benzo[d]imidazole-1,3(2H)-diyl)bis(acetyl))bis(2-oxo-2H-chromene-3-carbohydrazide)]	–	–	–	–	50.8 ± 2.93 µM	0.87	48.5 ± 2.8 µM	0.91	44.6 ± 2.57 µM	21.7 ± 1.25 µM	2.05	–	–	–	–	–	–
O=C(Cn1c(=O)n(CC(=O)NNC(=O)c2cc3cc(Cl)ccc3oc2=O)c2cc(Cl)c(Cl)cc21)NNC(=O)c1cc2cc(Cl)ccc2oc1=O [Compound 12b, N′,N′′′ -(2,2′-(5,6-dichloro-2-oxo-1H-benzo[d]imidazole-1,3(2H)-diyl)bis(acetyl))bis(6-chloro-2-oxo-2H-chromene-3-carbohydrazide)]	–	–	–	–	25.8 ± 1.5 µM	1.9	13.6 ± 0.78 µM	3.61	49.1 ± 2.83 µM	35.2 ± 2 µM	1.39	28.5 ± 2.3 µU/mL and 28.5 ± 2.3 ^a,b µU/mL	41.0 ± 2.1%	35.0 ± 1.7%	24.0 ± 1.4%	10.1 ± 1.1	8.1 ± 0.6 µmol H2O2 eq/L and 8.1 ± 0.6 ^a,b µmol H2O2 eq/L
COc1cccc2cc(C(=O)NNC(=O)Cn3c(=O)n(CC(=O)NNC(=O)c4cc5cccc(OC)c5oc4=O)c4cc(Cl)c(Cl)cc43)c(=O)oc12 [Compound 12e, N′,N′′′ -(2,2′-(5,6-dichloro-2-oxo-1H-benzo[d]imidazole-1,3(2H)-diyl)bis(acetyl))bis(8-methoxy-2-oxo-2H-chromene-3-carbohydrazide)]	–	–	–	–	65.1 ± 3.76 µM	0.92	54.3 ± 3.13 µM	1.1	60.2 ± 3.47 µM	52.8 ± 3 µM	1.14	–	–	–	–	–	–
CCN(CC)c1ccc2cc(C(=O)NNC(=O)Cn3c(=O)n(CC(=O)NNC(=O)c4cc5ccc(N(CC)CC)cc5oc4=O)c4cc(Cl)c(Cl)cc43)c(=O)oc2c1 [Compound 12f]	–	–	–	–	26.4 ± 1.52 µM	1.64	29.1 ± 1.26 µM	1.49	43.5 ± 2.51 µM	23.6 ± 1.3 µM	1.84	–	–	–	–	–	–
COc1cccc2c1C(=O)c1c(O)c3c(c(O)c1C2=O)C[C@@](O)(C(=O)CO)C[C@@H]3O[C@H]1C[C@H](N)[C@H](O)[C@H](C)O1 [Doxorubicin, reference compound]	–	–	–	–	6.4 ± 0.37 µM	–	3.4 ± 0.19 µM	–	–	4.3 ± 0.2 µM	–	–	–	–	–	–	–

— article PMC12735921, “Evaluation of Antiproliferative Activity and Molecular Modeling Studies of Some Novel Benzimidazolone-Bridged Hybrid Compounds” (Pharmaceuticals, 2025)
